According to patent US20230390315A1, “COMPOSITIONS AND METHODS FOR TREATING ISCHEMIC CONDITIONS” (The Regents of the University of California, priority 2020, published 2023):

Legend:
[1] = system: bovine retinal microvascular endothelial cells (BREC); assay: BREC proliferation assay; assay type: cell-based
Method: Proliferation assays with BCECs and BRECs were performed. Log-phase growing BCECs or BRECs (passage <10) were trypsinized, re-suspended and seeded in 96-well plates (no coating) in low-glucose DMEM supplemented with 10% bovine calf serum, 2 mM glutamine, and antibiotics (growth medium), at a density of 1200-1500 cells per well in 200 μl volume. All reagents were added at the indicated final concentrations. After 3-6 days, cells were incubated with AlamarBlue for 4 hrs. Fluorescence was measured at 530 nm excitation wavelength and 590 nm emission wavelength. The experiments were repeated at least three times. To create a hypoxic condition, cells were placed in a hypoxia incubator with a mixture of gas consisting of 1% 02, 5% CO2 and 94% Nz. On each 96-well plate, untreated and VEGF-treated (10/ng/ml) wells were included to monitor plate-to-plate variations. 20% methanol or 0.05% DMSO served as negative controls. 0.05% DMSO served as negative controls when Cas was tested in these cells. Human RMVECs and human adult DMVECs were split into Gelatin-coated 96 wells (2000 cells per well) in low glucose DMEM containing 10% FBS. 1200 cells/well was set up for proliferation assay in low glucose media containing FBS. Data was collected at day 4 or 5. HUVEC (p7-10) were grown on gelatin-coated plate until it reached 70-80% confluency.

[2] = system: skin wound; assay: Skin wound healing model (splinted wound); assay type: in vivo, mouse; settings: day 4; topical 20 μg daily
From the text: The model has been previously described. Briefly, C57BL/6 female mice (8-10 weeks old) were obtained from Jackson labs (Sacramento, CA). A fresh, full-thickness punch wound (4 mm diameter) using a punch (Acu Punch, Acuderm inc. Ft. Lauderdale, FL) splinted with a sterile neoprene ring (6-mm outer diameter and 4-mm inner diameter), fastened with 5-6 sutures (4-0 nylon) under the influence of Isoflurane was created on the back of the animal in a Class II Biological Safety Cabinet. For all surgical procedures, sterile technique was followed. Buprenorphine was given subcutaneously prior to awakening from anesthesia for anticipated pain. Mice were monitored until fully awake and were housed individually to minimize damage/biting/fighting to the surgical site. […] Treatment agents were prepared in PBS, sterile-filtered and 25 μl solution was applied daily directly to a wound bed for the first 4-5 days under the influence of Isoflurane, followed by daily observation. Wound closure was monitored by regular imaging and the wound area was quantified using ImageJ (National Institutes of Health, Bethesda, MD, USA). […] Epithelial gap was measured histomorphometrically using AxioVision LE Rel.4.4 software. […] Small vessels stained positive for CD31 were counted microscopically on 10 fields (20×) taken around the wound.

[3] = system: 4T1 cells; assay: 4T1 proliferation assay (MTS); assay type: cell-based, mouse
[4] = ManN stability in wound fluid from S. aureus infected mice; assay type: in vitro ADME, mouse; settings: up to 24 hours at 37° C.
Method: To test ManN stability in wound fluid collected from mice with skin infection as described below, 1.5 μl of 5% ManN solution was added to each 200 μl wound fluid which was first diluted 1:1 (v/v) with PBS. At each time point, samples were taken from 37° C. incubator and stored at −80° C. Plasma proteins were precipitated by adding ice cold acetonitrile to plasma: acetonitrile 1:3 (v/v) ratio. Samples were kept over ice for 1 hr and then centrifuged at 12000 g for 10 min at 7° C. to form a pellet. Supernatants were transferred to other tubed, dried down on a Speed Vac and then reconstituted in UltraPure distilled water and filtered through pre-washed Nanosep 3K Omega filters (Pall Corporation). The filtrate was dried down on Speed Vac. The dry samples were dissolved in 100 μl of water and 2 μL plasma or wound fluid sample was subjected to HPLC analysis. Neutral and amino sugars were separated on a Dionex CarboPac™ PA1 column 4 mm×250 mm with 4 mm×50 mm guard column. An isocratic gradient of 19 mM sodium hydroxide with 0.95 mM sodium acetate was used at a flow rate of 1 ml/min with 20 min run. Data was collected using the Dionex ICS-3000 HPLC system with pulsed amperometric detector using standard Quad waveform. ManN was identified and quantified by comparison with monosaccharide standard using Thermo Scientific Chromeleon software. No ManN samples served as negative controls. […]

In the case of `N[C@H](C=O)[C@@H](O)[C@H](O)[C@H](O)CO` [ManN, 2-Amino-2-deoxy-D-mannose], the “additive effects in promoting BREC proliferation” value [1] is reported as “Additive effects”, the “average closure of the wound” value [2] is reported as 75.6% and the “growth of 4T1” value [3] is reported as “did not promote growth”. The “toxicity on 4T1 cells” value ([3]; at 5 mM) was “significant toxicity” and the “loss of free ManN on incubation with wound fluid” value [4] was “No significant loss of free ManN”.
